The test system of experiment [1] is IRF3-driven Luc expression in THP-1 Dual cells. The experiment in a line: THP-1 Dual IRF3-Luc reporter assay. To be noted: for inhibition of IRF3-dependent Luc expression: THP-1 Dual cells, induced by DNA or cGAMP; for cGAS-dependent cellular activity: human monocyte cell line THP-1. Format: cell-based, human. The protocol: (§1) IFN induction in human monocyte cell lines: The human monocyte cell line THP-1 gives a robust cGAS/STING-dependent type I IFN response and has been used extensively for studies on the pathway. Typically, cells are stimulated by transfection with dsDNA and gene expression is assessed using an ELISA for IFNβ, a reporter gene assay, and/or cGAS/STING pathway markers such as STING phosphorylation. These assays were validated using the TBK1 inhibitor, BX-795, which acts downstream of cGAS/STING, as a probe; THP-1 Dual cells (Invivogen, San Diego) are used as the reporter cell line for routine compound testing (FIG. 5A). These assays were optimized, including equalizing responses with transfected DNA and cGAMP and comparing responses between undifferentiated cells and cells that have been differentiated to macrophages (which show little difference). […] Stimulation of THP-1 Dual cells with damage-associated molecular pattern molecules (DAMPs) that act through pattern recognition receptors other than cGAS provides another way to confirm the specificity of putative cGAS inhibitors.
For orientation: Reporter assays use an easily measured gene product as a stand-in for the process of interest.

Experiment [2] has as its system NFκB-driven SEAP expression in THP-1 Dual cells. The experiment in a line: THP-1 Dual NFκB-SEAP reporter assay. Format: cell-based, human. To be noted: THP-1 Dual cells. On the procedure: as §1
The subject of experiment [3] is THP1 cGAS KO cells. The experiment in a line: Specificity test in THP-Dual cGAS knockout cells. Format: cell-based, human. Conditions: LPS-stimulated, cGAS KO.
Excerpt: FIG. 5 includes (A) a schematic showing the THP1 dual-cell reporter system: secreted luciferase reports on IRF3-driven transcription; secreted alkaline phosphatase reports on NFκB-driven transcription, both downstream of cGAS/STING. THP-Dual cGAS knockout cells are used to test for non-specific effects; (B) a plot of the dose response for inhibition of Luc expression by Compound 15; (C) a plot of the dose response for inhibition of Luc expression by the TBK1 inhibitor, BX-795; and (D) a plot of the dose response for inhibition of SEAP expression by Compound 15.
as §1

Experiment [4] deals with T1, cGAS (Homo sapiens, UniProt Q8N884). The experiment in a line: cGAS enzymatic assay (FP/TR-FRET detection of cGAMP). Format: biochemical. The arrangement: The cGAS assay was used to screen 100,000 compounds with full-length human cGAS; 6xHis; made in house. On the procedure:
Some exemplary compounds of the disclosure were tested for inhibition of cGAS (30 nM). The results are provided in Table 1 where “A” indicates an IC50 of less than 100 nM, “B” indicates an IC50 of greater than 100 nM and less than 500 nM, “C” indicates an IC50 of greater than 500 nM and less than 1 μM, “D” indicates an IC50 of greater than 1 μM and less than 10 μM, and “E” indicates an IC50 of greater than 10 μM.
A homogenous cGAS enzymatic assay was developed with fluorescence polarization (FP) and time-resolved Forster resonance energy transfer (TR-FRET) readouts (FIG. 2A-2D). The cGAS assay was used to screen 100,000 compounds with full-length human cGAS (FIG. 2E), resulting in the identification of the novel chemotype of the disclosure, two of which are further developed in a structure-driven hit-to-lead study (Table 3, below). The assay performance was robust, as indicated by respective Z and Z′ values of 0.59 and 0.63 in the screen; compounds with polarization values greater than three SDs from the mean were considered hits; a scatterplot from 10 plates (3,200 compounds) is shown in FIG. 2D.
Biochemical and biophysical analysis: Potency and MOA studies, including Mn^2+ sensitivity, are performed using the cGAS enzymatic assay. Dose response experiments are used to determine IC50 values under basal conditions (5 mM MgCl2, 100 μM ATP/GTP), and with the addition of physiological levels of Mn (0.2 mM) using human and mouse cGAS. Ligand optimization is driven by potency with the human enzyme; potency with mouse cGAS informs selection of an appropriate disease model for efficacy studies. Competition with ATP and GTP is assessed by comparing basal IC50 values to those in the presence of saturating ATP or GTP, and subsequently confirmed by measuring velocity vs. substrate at varying ATP or GTP levels. Inhibitor residence times (1/koff) are used as a key parameter for prioritizing compounds and driving SAR, because a longer residence time often results from an allosteric mechanism, and can also correlate with improved cellular activity. The cGAS enzymatic assay is used with the jump dilution method to measure residence times (inhibitor dissociation rates), as described for kinases using the very similar ADP assay. Biophysical methods, including SPR and TSA, are used as orthologous methods for residence time measurements and kd estimates.
For orientation: Time-resolved FRET reads energy transfer from a long-lived donor to a nearby acceptor.

For experiment [5], the target named is T1, cGAS. As to the kind of experiment: SPR / biophysical binding to cGAS. Conditions: SPR; read-out: Kd determined with SPR. From the text:
Following confirmation of hits at three concentrations and removal of compounds with visually evident reactivity or metabolic liabilities, non-stoichiometric inhibitors, aggregators, DNA intercalators and redox-active compounds were triaged (FIG. 2E) using established assays. […] Initial SAR based on more than 100 commercially available analogs provided additional confidence that the compounds were bonafide inhibitors, and informed potential scaffold hops and toleration for modifications.
A highly efficient platform for preclinical drug discovery (FIG. 3) was assembled, providing for development of cGAS inhibitors, which is improved by the addition of a powerful computational modeling method and in vivo PK studies (FIG. 3). […]
Biochemical and biophysical analysis: Potency and MOA studies, including Mn^2+ sensitivity, are performed using the cGAS enzymatic assay. […] Competition with ATP and GTP is assessed by comparing basal IC50 values to those in the presence of saturating ATP or GTP, and subsequently confirmed by measuring velocity vs. substrate at varying ATP or GTP levels. […]

In experiment [6] the test system is IFNβ expression in THP-1 cells. As to the kind of experiment: IFNβ ELISA in THP-1 cells. Format: cell-based, human. The protocol: as §1
The mark [7] stands for this setting: cGAS (30 nM), with Mn^2+, read-out: Inhibition cGAS + Mn^2+.
Where [8] appears, read: cGAS (30 nM), read-out: Inhibition cGAS.

The results in this text go back to patent US20220073532A1, “INHIBITORS OF CGAS ACTIVITY AS THERAPEUTIC AGENTS” (BELLBROOK LABS, LLC, priority 2019, published 2022).

The Kd is the concentration at which binding is half-saturated.

Molecules are shown by their SMILES. Like-named read-outs stand apart in the source and are kept apart here.

T1 sequence (Q8N884 whole entry): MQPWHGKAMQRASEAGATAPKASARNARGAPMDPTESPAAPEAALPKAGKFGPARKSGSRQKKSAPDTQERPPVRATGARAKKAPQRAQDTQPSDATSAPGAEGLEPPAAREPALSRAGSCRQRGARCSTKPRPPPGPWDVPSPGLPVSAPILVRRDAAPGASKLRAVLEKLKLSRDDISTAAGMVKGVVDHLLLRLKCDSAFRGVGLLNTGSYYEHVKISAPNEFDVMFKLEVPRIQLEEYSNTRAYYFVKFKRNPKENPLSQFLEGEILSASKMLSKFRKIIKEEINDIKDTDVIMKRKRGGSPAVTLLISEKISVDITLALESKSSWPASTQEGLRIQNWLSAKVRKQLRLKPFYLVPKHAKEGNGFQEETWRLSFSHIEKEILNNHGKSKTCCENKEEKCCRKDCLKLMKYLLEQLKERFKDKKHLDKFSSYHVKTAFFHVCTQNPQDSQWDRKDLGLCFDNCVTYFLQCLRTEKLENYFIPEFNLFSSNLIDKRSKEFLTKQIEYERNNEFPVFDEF

`O=C(NCCCNc1nc(Nc2cccc(NC(=O)N3CCCC3)c2)ncc1I)c1cccs1` [BX-795, reference compound]: the “inhibition of IRF3-dependent Luc expression” value in experiment [1] is listed as “dose-dependent inhibition”. Further, the “inhibition of NFκB-driven SEAP expression” value in experiment [2] was “did not inhibit”. In addition, the “effect on IRF3-driven Luc expression in THP1 cGAS KO cells stimulated with LPS” value in experiment [3] is “inhibited with an expected potency”.

Consider `CCc1nc(N2CCC[C@H]2C(=O)O)c2oc3ccccc3c2n1` [Compound 1, (2-ethylbenzofuro[3,2-d]pyrimidin-4-yl)-L-proline], for which the IC50 is 19000 nM in experiment [4] (5 mM Mg^2+, 0.2 mM Mn^2+, read-out: IC50 (5 mM Mg^2+, 0.2 mM Mn^2+)); 2600 nM in experiment [4] (5 mM Mg^2+, read-out: IC50 (5 mM Mg^2+)); above 10000 nM in experiment [4] (setting [7]); 1000 to 10000 nM in experiment [4] (setting [8]); 1260 nM in experiment [4] (read-out: IC50 in the cGAS enzymatic assay). In addition, the equilibrium dissociation constant (Kd) in experiment [5] was determined as 2400 nM.

With `Cc1nc(N2C[C@@H](Nc3n[nH]cc3C3CC3)C[C@H]2C(=O)O)c2oc3ccccc3c2n1` [Compound 53, (2S,4S)-4-((4-cyclopropyl-1H-pyrazol-3-yl)amino)-1-(2-methylbenzofuro[3,2-d]pyrimidin-4-yl)pyrrolidine-2-carboxylic acid], the “inhibition of IFNβ expression” value in experiment [6] is on record as “inhibit IFNβ expression”. Also, in experiment [1], the “inhibition of IRF3-dependent Luc expression” value was “reproducible inhibition”. Further, the IC50 in experiment [4] (setting [7]) was 1000 to 10000 nM; in experiment [4] (setting [8]), 100 to 500 nM.

As to `Cc1nc(N2C[C@@H](N(C)C(=O)Cc3ccncc3)C[C@H]2C(=O)O)c2oc3ccccc3c2n1` [Compound 60, (2S,4S)-4-(N-methyl-2-(pyridin-4-yl)acetamido)-1-(2-methylbenzofuro[3,2-d]pyrimidin-4-yl)pyrrolidine-2-carboxylic acid], the IC50 in experiment [4] (setting [8]) was in the range of 500 to 1000 nM.

In the case of `Cc1nc(N2C[C@@H](NC(=O)C(C)(C)c3ccnc(C(F)(F)F)c3)C[C@H]2C(=O)O)c2oc3ccccc3c2n1` [Compound 61, (2S,4S)-4-(2-methyl-2-(2-(trifluoromethyl)pyridin-4-yl)propanamido)-1-(2-methylbenzofuro[3,2-d]pyrimidin-4-yl)pyrrolidine-2-carboxylic acid], the IC50 lay within 1000 to 10000 nM in experiment [4] (setting [7]) and 500 to 1000 nM in experiment [4] (setting [8]).

Turning to `Cc1nc(N2C[C@@H](NC(=O)C3(c4ccncc4)CC3)C[C@H]2C(=O)O)c2oc3ccccc3c2n1` [Compound 62, (2S,4S)-1-(2-methylbenzofuro[3,2-d]pyrimidin-4-yl)-4-(1-(pyridin-4-yl)cyclopropane-1-carboxamido)pyrrolidine-2-carboxylic acid], the IC50 in experiment [4] (setting [7]) fell in the range of 1000 to 10000 nM; in experiment [4] (setting [8]), 500 to 1000 nM.

Take `Cc1nc(N2C[C@@H](Nc3n[nH]cc3-c3ccccn3)C[C@H]2C(=O)O)c2oc3ccccc3c2n1` [Compound 63, (2S,4S)-1-(2-methylbenzofuro[3,2-d]pyrimidin-4-yl)-4-((4-(pyridin-2-yl)-1H-pyrazol-3-yl)amino)pyrrolidine-2-carboxylic acid]: the IC50 in experiment [4] (setting [7]) and in experiment [4] (setting [8]) was 1000 to 10000 nM throughout.

With `Cc1nc(N2C[C@@H](N(C)c3n[nH]cc3C)C[C@H]2C(=O)O)c2oc3ccccc3c2n1` [Compound 64, (2S,4S)-4-(methyl(4-methyl-1H-pyrazol-3-yl)amino)-1-(2-methylbenzofuro[3,2-d]pyrimidin-4-yl)pyrrolidine-2-carboxylic acid], the IC50 in experiment [4] (setting [7]) and in experiment [4] (setting [8]) was 1000 to 10000 nM throughout.

On to `Cc1nc(N2C[C@@H](Cc3nnn[nH]3)C[C@H]2CO)c2oc3ccccc3c2n1` [Compound 65, ((2S,4R)-4-((1H-tetrazol-5-yl)methyl)-1-(2-methylbenzofuro[3,2-d]pyrimidin-4-yl)pyrrolidin-2-yl)methanol], for which the IC50 in experiment [4] (setting [7]) and in experiment [4] (setting [8]) was 1000 to 10000 nM in each case.

Take `Cc1nc(N2C[C@@H](NC(=O)C(C)(C)c3cn[nH]c3)C[C@H]2C(=O)O)c2oc3ccccc3c2n1` [Compound 66, (2S,4S)-4-(2-methyl-2-(1H-pyrazol-4-yl)propanamido)-1-(2-methylbenzofuro[3,2-d]pyrimidin-4-yl)pyrrolidine-2-carboxylic acid]: the IC50 in experiment [4] (setting [7]) was 1000 to 10000 nM; in experiment [4] (setting [8]) it was 100 to 500 nM.

On to `Cc1cc(CC(=O)N[C@H]2C[C@@H](C(=O)O)N(c3nc(C)nc4c3oc3ccccc34)C2)ccn1` [Compound 67, (2S,4S)-1-(2-methylbenzofuro[3,2-d]pyrimidin-4-yl)-4-(2-(2-methylpyridin-4-yl)acetamido)pyrrolidine-2-carboxylic acid], for which the results for the IC50 in experiment [4] (setting [7]) and in experiment [4] (setting [8]) were above 10000 nM and 1000 to 10000 nM, respectively.

As to `Cc1nc(N2CC[C@H]2C(=O)O)c2oc3ccccc3c2n1` [Compound 68, (S)-1-(2-methylbenzofuro[3,2-d]pyrimidin-4-yl)azetidine-2-carboxylic acid], the IC50 in experiment [4] (setting [7]) lay within 1000 to 10000 nM; in experiment [4] (setting [8]), 500 to 1000 nM.

In the case of `Cc1nc(N2CCC[C@H]2C(=O)O)c2oc3cc(F)ccc3c2n1` [Compound 69, (7-fluoro-2-methylbenzofuro[3,2-d]pyrimidin-4-yl)-L-proline], the IC50 in experiment [4] (setting [7]) is 1000 to 10000 nM; in experiment [4] (setting [8]), 500 to 1000 nM.

Consider `CCN(CCO)CCCC(C)Nc1ccnc2cc(Cl)ccc12` (centres unmarked) [hydroxychloroquine, reference compound], for which the cGAS-dependent cellular activity result in experiment [1] is recorded as “not observed”.

Turning to `CCN(CC)CCCC(C)Nc1c2ccc(Cl)cc2nc2ccc(OC)cc12` (centres unmarked) [quinacrine, reference compound], in experiment [1], the cGAS-dependent cellular activity result is “not observed”.

Turning to `Cc1ccc(C(=O)Nc2ccc(S(=O)(=O)O)c3cc(S(=O)(=O)O)cc(S(=O)(=O)O)c23)cc1NC(=O)c1cccc(NC(=O)Nc2cccc(C(=O)Nc3cc(C(=O)Nc4ccc(S(=O)(=O)O)c5cc(S(=O)(=O)O)cc(S(=O)(=O)O)c45)ccc3C)c2)c1` [suramin, reference compound], in experiment [1], the cGAS-dependent cellular activity result is recorded as “not observed”.
